{
  "source": "patent US20220408724A1",
  "about": "“METHOD FOR CONTROLLING METABOLISM OF BRANCHED FATTY ACID” (KAO CORPORATION, priority 2019, published 2022)",
  "format_in_all_cases": "cell-based",
  "key": {"[1]": {"system": "Escherichia coli (NBRC3972)", "assay": "Suppression of metabolism of 14-methylhexadecanoic acid on cotton fabric", "experimental": "A methanol solution in which 14-methylhexadecanoic acid (SIGMA-ALDRICH) was dissolved was added dropwise to 3 cm×3 cm pieces of sterilized plain-weave cotton fabric to make it adhered to the fabric. The adhesion amount of 14-methylhexadecanoic acid was set to 10 μg per piece of the plain-weave cotton fabric (100 μg/fabric g).\nFurther, a methanol solution in which each metabolism controlling agent was dissolved was prepared and added dropwise to the fabric to which 14-methylhexadecanoic acid adhered, and it was thereafter dried for an hour. This fabric was placed in a sterilized screw tube bottle No. 3 (Maruemu Corporation) and 100 μl of the bacterial suspension was inoculated thereto, and culture was carried out under 37° C.; conditions for 21 hours.\n3 ml of methanol was added to the screw tube bottle after culture, and extraction was carried out under ultrasonic irradiation for 30 minutes (20° C.). The extraction liquid was mixed with a (trimethylsilyl)diazomethane hexane solution (FUJIFILM Wako Pure Chemical Corporation) at 9:1 (volume ratio) and left overnight under room temperature and dark place conditions. After that, 14-methylhexadecanoic acid remaining on the fabric was quantified by GC. The quantification conditions for GC are as follows. • GC: Agilent 7890A • GC column: Agilent DB-1 30 m×250 μm×0.25 μm • Temperature rise condition: 50° C. (held for 3 minutes)-(10° C./min)-300° C. (held for 5 minutes) • Sample injection volume: 1 μl • Split ratio: 1:12 • Detector: FID\nThe residual amount of 14-methylhexadecanoic acid after culture on the fabric to which the metabolism controlling agent was added was quantified, and the ratio of the residual amount to that of 14-methylhexadecanoic acid in the case of adding no metabolism controlling agent (control) was calculated as a metabolism suppression rate (%). The higher a numerical value thereof is, the more the metabolism is suppressed. Note that the metabolism suppression rate was determined by the following formula:\nMetabolism suppression rate(%)=[1−(100−A)/(100−B)]×100 • A: residual amount of 14-methylhexadecanoic acid of example or comparative example (μg/fabric g) • B: residual amount of 14-methylhexadecanoic acid of control (μg/fabric g)\n(§1) The metabolism of 14-methylhexadecanoic acid by bacteria of the genus Escherichia (Escherichia coli) was tested in the same manner as in example 1.\n(§2) In this example, Escherichia coli (NBRC3972) was used as a microorganism.\n(§3) Further, in this example, a bacterial suspension of 10^6 (CFU/ml) prepared by using an NB liquid medium diluted to 1/10 with ion exchange water was used as a bacterial suspension.\n(§4) Note that, in this example, C12OH (1-dodecanol) was used as the metabolism controlling agent."}, "Rhodotorula mucilaginosa": {"system": "Rhodotorula mucilaginosa", "assay": "Measurement of viable count on fabric (PDA agar)", "experimental": "(§5) After culture on fabric prepared in the same manner as in the above (1), 9 mL of an LP diluent (manufactured by NIHON PHARMACEUTICAL CO., LTD.) was added, and the extraction of the bacteria was carried out under ultrasound for 10 minutes. The extraction liquid was poured and mixed to an SCD-LP agar medium (NIHON PHARMACEUTICAL CO., LTD.), and culture was thereafter carried out at 37° C.; for a day. The number of colonies obtained on each piece of the fabric was counted, and a common logarithm value thereof was measured as the viable bacterial count. […] In addition, the […], the more the viable bacterial count of the microorganism is maintained.\nThe metabolism of 14-methylhexadecanoic acid by yeast of the genus Rhodotorula was tested in the same manner as in example 1.\nIn this example, Rhodotorula mucilaginosa (strain isolated from clothing) was used as a microorganism.\nFurther, in this example, the bacteria were precultured under conditions of a PDA agar medium (Difco), 30° C.; and 48 hours.\nFurther, in this example, a bacterial suspension of 10^7 (CFU/ml) prepared by using a PDB liquid medium (Difco) diluted to 1/10 with ion exchange water was used as a bacterial suspension.\nFurther, in this example, after the extraction of the bacteria in (3) of example 1, they were poured and mixed to a PDA agar medium (Difco) and thereafter cultured at 30° C.; for 2 days, and the viable bacterial count was measured.\nas §4"}, "Staphylococcus aureus": {"system": "Staphylococcus aureus", "assay": "Measurement of viable bacterial count on fabric", "experimental": "as §5\nThe metabolism of 14-methylhexadecanoic acid by bacteria of the genus Staphylococcus (Staphylococcus aureus) was tested in the same manner as in example 1.\nIn this example, Staphylococcus aureus (strain isolated from clothing) was used as a microorganism.\nFurther, in this example, a bacterial suspension of 10^7 (CFU/ml) prepared by using an NB liquid medium diluted to 1/10 with ion exchange water was used as a bacterial suspension.\nas §4"}, "[2]": {"system": "Escherichia coli (NBRC3972)", "assay": "Measurement of viable bacterial count on fabric", "experimental": "as §5, §1, §2, §3, §4"}, "Micrococcus aloeverae [3]": {"system": "Micrococcus aloeverae", "assay": "Suppression of metabolite 2-methylbutanoic acid from 14-methylhexadecanoic acid", "experimental": "After culture on fabric prepared in the same manner as in the above (1), 3 ml of methanol was added, and extraction was carried out under ultrasonic irradiation for 30 minutes (20° C.). The extraction liquid was mixed with (a 1000 ppm methanol solution of) an ADAM reagent of Funakoshi Co., Ltd. at 1:1 (volume ratio) and left overnight under room temperature and dark place conditions. After that, 4-methyl-3-hexenoic acid as a metabolite from 14-methylhexadecanoic acid was quantified by HPLC. The quantification conditions are as follows.\nThe production amount of 4-methyl-3-hexenoic acid after culture on the fabric to which each metabolism controlling agent was added was quantified, and the ratio of the production amount to that of 4-methyl-3-hexenoic acid in the case of adding no metabolism controlling agent (control) was calculated as a metabolite suppression rate (%). The higher a numerical value thereof is, the more the metabolism is suppressed. Note that the metabolite suppression rate was determined by the following formula:\nMetabolite suppression rate(%)=100×[(D−C)/D] • C: production amount of metabolite of example or comparative example (μg/fabric g) • D: production amount of metabolite of control (μg/fabric g)\n(§6) The metabolism of 14-methylhexadecanoic acid by bacteria of the genus Micrococcus was tested in the same manner as in example 1.\n(§7) In this example, Micrococcus aloeverae (strain isolated from clothing) was used as a microorganism.\n(§8) Further, in this example, a bacterial suspension of 10^7 (CFU/ml) prepared by using an SCD liquid medium (NIHON PHARMACEUTICAL CO., LTD.) diluted to 1/10 with ion exchange water was used as a bacterial suspension.\nFurther, in this example, 2-methylbutanoic acid was quantified as a metabolite from 14-methylhexadecanoic acid, and the metabolite suppression rate was determined in the same manner as in example 1.\nas §4"}, "Micrococcus aloeverae [4]": {"system": "Micrococcus aloeverae", "assay": "Measurement of viable bacterial count on fabric", "experimental": "as §5, §6, §7, §8, §4"}},
  "note": "Where “and” joins values, the source holds several entries; their conditions need not be identical. Equal entries are not always repeated.",
  "data": [
    {"smiles": "CCCCCCCCCCCCO", "note": "[Example C12OH, 1-dodecanol]", "values": [
      {"measurement": "Metabolism suppression rate (%)", "setting": "[1]; agent 500 μg/fabric g", "result": "39% and 21%"},
      {"measurement": "Metabolism suppression rate (%)", "setting": "[1]; agent 1000 μg/fabric g", "result": "90% and 61%"},
      {"measurement": "Metabolism suppression rate (%)", "setting": "[1]; agent 2000 μg/fabric g", "result": 66, "unit": "%"},
      {"measurement": "Metabolism suppression rate (%)", "setting": "[1]; agent 3000 μg/fabric g", "result": 73, "unit": "%"},
      {"measurement": "Bacterial count (Log (cfu/fabric cm^2))", "setting": "Rhodotorula mucilaginosa; agent 250 μg/fabric g", "result": "4.9 Log (cfu/fabric cm^2)"},
      {"measurement": "Bacterial count (Log (cfu/fabric cm^2))", "setting": "Rhodotorula mucilaginosa; agent 500 μg/fabric g", "result": "4.7 Log (cfu/fabric cm^2)"},
      {"measurement": "Bacterial count (Log (cfu/fabric cm^2))", "setting": "Rhodotorula mucilaginosa; agent 1000 μg/fabric g", "result": "4.8 Log (cfu/fabric cm^2)"},
      {"measurement": "Bacterial count (Log (cfu/fabric cm^2))", "setting": "Staphylococcus aureus; agent 100 μg/fabric g", "result": "6.4 Log (cfu/fabric cm^2)"},
      {"measurement": "Bacterial count (Log (cfu/fabric cm^2))", "setting": "Staphylococcus aureus; agent 500 μg/fabric g", "result": "6.2 Log (cfu/fabric cm^2)"},
      {"measurement": "Bacterial count (Log (cfu/fabric cm^2))", "setting": "[2]; agent 500 μg/fabric g", "result": "6.3 Log (cfu/fabric cm^2)"},
      {"measurement": "Bacterial count (Log (cfu/fabric cm^2))", "setting": "[2]; agent 1000 μg/fabric g", "result": "6.3 Log (cfu/fabric cm^2) and 6.4 Log (cfu/fabric cm^2)"},
      {"measurement": "Bacterial count (Log (cfu/fabric cm^2))", "setting": "[2]; agent 2000 μg/fabric g", "result": "6.3 Log (cfu/fabric cm^2)"},
      {"measurement": "Bacterial count (Log (cfu/fabric cm^2))", "setting": "[2]; agent 3000 μg/fabric g", "result": "6.3 Log (cfu/fabric cm^2)"},
      {"measurement": "Metabolite suppression rate (%)", "setting": "Micrococcus aloeverae [3]; agent 100 μg/fabric g", "result": 21, "unit": "%"},
      {"measurement": "Metabolite suppression rate (%)", "setting": "Micrococcus aloeverae [3]; agent 250 μg/fabric g", "result": "79% and 74%"},
      {"measurement": "Metabolite suppression rate (%)", "setting": "Micrococcus aloeverae [3]; agent 500 μg/fabric g", "result": 75, "unit": "%"},
      {"measurement": "Metabolite suppression rate (%)", "setting": "Micrococcus aloeverae [3]; agent 1000 μg/fabric g", "result": 75, "unit": "%"},
      {"measurement": "Bacterial count (Log (cfu/fabric cm^2))", "setting": "Micrococcus aloeverae [4]; agent 100 μg/fabric g", "result": "6.5 Log (cfu/fabric cm^2)"},
      {"measurement": "Bacterial count (Log (cfu/fabric cm^2))", "setting": "Micrococcus aloeverae [4]; agent 500 μg/fabric g", "result": "5.6 Log (cfu/fabric cm^2)"},
      {"measurement": "Bacterial count (Log (cfu/fabric cm^2))", "setting": "Micrococcus aloeverae [4]; agent 1000 μg/fabric g", "result": "5.6 Log (cfu/fabric cm^2)"}
    ]}
  ]
}
